Patent publication US10633407B2, “14-membered ketolides and methods of their preparation and use” (President and Fellows of Harvard College, priority 2014, dated 2020)

Tests used:
Assay in all cases: CLSI broth dilution MIC determination
Type in all cases: cell-based
K. pneumoniae SHV-12 = settings: Gram-negative
K. pneumoniae KPC-2 = settings: Gram-negative
A. baumannii IMP-4 = settings: Gram-negative
[1] = test system: E. faecalis Vancomycin-resistant; settings: E. faecalis Vancomycin-resistant; Gram-positive
[2] = test system: S. pyogenes Macrolide-resistant; settings: S. pyogenes Macrolide-resistant; Gram-positive
P. aeruginosa ATCC 27853 = settings: P. aeruginosa ATCC 27853; Gram-negative
A. baumannii ATCC 19606 = settings: A. baumannii ATCC 19606; Gram-negative
[3] = test system: A. baumannii chromosomal class C; settings: Gram-negative
[4] = test system: A. baumannii imipenem-resistant; settings: Gram-negative
[5] = test system: P. aeruginosa HPA101-1477; settings: Gram-negative
E. coli TEM-1 = settings: E. coli TEM-1; Gram-negative
Summary of the method: (§1)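 Azithromycin and solithromycin were included as macrolide controls in many cases. MICs were determined by CLSI standard broth dilution.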

S. pneumoniae ATCC 49619 = settings: S. pneumoniae ATCC 49619; Gram-positive
Summary of the method: as §1

[6] = test system: S. pneumoniae erm B + mef A genotype; settings: S. pneumoniae erm B + mef A genotype; Gram-positive
Summary of the method: as §1

E. coli ATCC 25922 = settings: E. coli ATCC 25922; Gram-negative
Summary of the method: as §1

H. influenzae ATCC49247 = settings: Gram-negative
Summary of the method: as §1

S. aureus MRSA: USA100 = settings: S. aureus MRSA: USA100; Gram-positive
Summary of the method: as §1

[7] = test system: S. pneumoniae mef A genotype (second strain so labelled); settings: Gram-positive
Summary of the method: as §1

S. aureus ATCC 29213 = settings: S. aureus ATCC 29213; Gram-positive
Summary of the method: as §1

E. coli CTX-M-14 = settings: Gram-negative
Summary of the method: as §1

K. pneumoniae TEM-10 = settings: Gram-negative
S. aureus MRSA: USA300 = settings: S. aureus MRSA: USA300; Gram-positive
Summary of the method: as §1

S. aureus USA600, GISA = settings: S. aureus USA600, GISA; Gram-positive
Summary of the method: as §1

S. aureus erm A genotype = settings: S. aureus erm A genotype; Gram-positive
Summary of the method: as §1

E. coli NDM-1 = settings: Gram-negative
Summary of the method: as §1

[8] = test system: H. influenzae Erythro >4, Azithro 1; settings: H. influenzae Erythro >4, Azithro 1; Gram-negative
Source text: MIC data was collected for the novel macrolides that this platform has produced against over 21 unique strains of B. subtilis, E. coli, S. aureus, S. pneumoniae, and H. influenzae, including several multidrug-resistant strains, with a special focus on macrolide resistant mechanisms (vide supra). […] CLSI standard procedures for broth dilution MIC determination were used. […] These genotypes can be constitutive or inducible.

K. pneumoniae ATCC 10031 = settings: K. pneumoniae ATCC 10031; Gram-negative
S. pyogenes ATCC 19615 = settings: S. pyogenes ATCC 19615; Gram-positive
E. faecalis ATCC 29212 = settings: E. faecalis ATCC 29212; Gram-positive

Measured: MIC

CC[C@H]1OC(=O)[C@H](C)C(=O)[C@H](C)[C@@H](O[C@@H]2OC(C)CC(N(C)C)C2O)[C@](C)(OC)C[C@@H](C)C(=O)[C@H](C)[C@H]2N(C/C=C/Cn3cc(-c4cccc(N)n4)nn3)C(=O)O[C@]12C (stereo partly shown) [FSM-100364]
32 µg/mL: K. pneumoniae TEM-10
0.5 µg/mL: [8]
4 µg/mL: [4]
16 µg/mL: E. coli ATCC 25922
< 0.0312 µg/mL: [2] | S. pneumoniae ATCC 49619 | S. aureus ATCC 29213 | S. pyogenes ATCC 19615 | E. faecalis ATCC 29212
0.125 µg/mL: [6]
2 µg/mL: H. influenzae ATCC49247 | S. aureus MRSA: USA300
> 32 µg/mL: K. pneumoniae SHV-12 | K. pneumoniae KPC-2 | A. baumannii IMP-4 | [1] | P. aeruginosa ATCC 27853 | [5] | E. coli TEM-1 | S. aureus MRSA: USA100 | E. coli CTX-M-14 | S. aureus USA600, GISA | S. aureus erm A genotype | E. coli NDM-1
8 µg/mL: A. baumannii ATCC 19606 | [3] | K. pneumoniae ATCC 10031
0.25 µg/mL: [7]

CC[C@H]1OC(=O)[C@H](C)C(=O)[C@H](C)[C@@H](O[C@@H]2OC(C)CC(N(C)C)C2O)[C@](C)(OC)C[C@@H](C)C(=O)[C@H](C)[C@H]2N(C/C=C/Cn3nnc(-c4ccccn4)n3)C(=O)O[C@]12C (stereo partly shown) [FSM-100371]
8 µg/mL: K. pneumoniae ATCC 10031
32 µg/mL: [3]
> 32 µg/mL: K. pneumoniae SHV-12 | K. pneumoniae KPC-2 | A. baumannii IMP-4 | [1] | P. aeruginosa ATCC 27853 | [4] | [5] | E. coli TEM-1 | E. coli ATCC 25922 | S. aureus MRSA: USA100 | E. coli CTX-M-14 | K. pneumoniae TEM-10 | S. aureus USA600, GISA | S. aureus erm A genotype | E. coli NDM-1
2 µg/mL: H. influenzae ATCC49247 | [8]
16 µg/mL: A. baumannii ATCC 19606
4 µg/mL: S. aureus MRSA: USA300
0.0625 µg/mL: [2]
< 0.0312 µg/mL: S. pneumoniae ATCC 49619 | S. aureus ATCC 29213 | S. pyogenes ATCC 19615 | E. faecalis ATCC 29212
0.125 µg/mL: [7]
0.25 µg/mL: [6]

CC[C@H]1OC(=O)[C@H](C)C(=O)[C@H](C)[C@@H](O[C@@H]2OC(C)CC(N(C)C)C2O)[C@](C)(OC)C[C@@H](C)C(=O)[C@H](C)[C@H]2N(C/C=C/Cn3nnnc3-c3ccccn3)C(=O)O[C@]12C (stereo partly shown) [FSM-100376]
8 µg/mL: E. coli ATCC 25922 | S. aureus MRSA: USA300 | K. pneumoniae ATCC 10031
0.25 µg/mL: [6]
16 µg/mL: A. baumannii ATCC 19606 | [3] | E. coli TEM-1
< 0.0312 µg/mL: [2] | S. pneumoniae ATCC 49619 | [7] | S. aureus ATCC 29213 | S. pyogenes ATCC 19615 | E. faecalis ATCC 29212
> 32 µg/mL: K. pneumoniae SHV-12 | K. pneumoniae KPC-2 | A. baumannii IMP-4 | [1] | [5] | S. aureus MRSA: USA100 | E. coli CTX-M-14 | S. aureus USA600, GISA | S. aureus erm A genotype | E. coli NDM-1
32 µg/mL: P. aeruginosa ATCC 27853 | [4] | K. pneumoniae TEM-10
1 µg/mL: H. influenzae ATCC49247 | [8]

CC[C@H]1OC(=O)[C@@](C)(F)C(=O)[C@H](C)[C@@H](O[C@@H]2OC(C)CC(N(C)C)C2O)[C@](C)(OC)C[C@@H](C)C(=O)[C@H](C)[C@H]2N(C/C=C/Cn3nnnc3-c3ccccn3)C(=O)O[C@]12C (stereo partly shown) [FSM-100386]
16 µg/mL: E. coli TEM-1 | E. coli ATCC 25922
8 µg/mL: K. pneumoniae ATCC 10031
0.25 µg/mL: [6]
2 µg/mL: [8]
< 0.0312 µg/mL: S. pneumoniae ATCC 49619 | S. aureus ATCC 29213 | S. pyogenes ATCC 19615 | E. faecalis ATCC 29212
32 µg/mL: A. baumannii ATCC 19606 | [3]
4 µg/mL: H. influenzae ATCC49247 | S. aureus MRSA: USA300
> 32 µg/mL: K. pneumoniae SHV-12 | K. pneumoniae KPC-2 | A. baumannii IMP-4 | [1] | P. aeruginosa ATCC 27853 | [4] | [5] | S. aureus MRSA: USA100 | E. coli CTX-M-14 | K. pneumoniae TEM-10 | S. aureus USA600, GISA | S. aureus erm A genotype | E. coli NDM-1
0.0625 µg/mL: [2] | [7]
